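Five concentrations, 48 hours, 96-well plates. TGI: total growth inhibition.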
Key:
Experiment in all cases: NCI-60 cell line screen, 48 h
[1] = system: HL-60(TB) leukemia
[2] = system: UO-31 renal
[3] = system: UACC-62 melanoma
[4] = system: K-562 leukemia
[5] = system: SK-OV-3 ovarian
[6] = system: HOP-92 NSCLC
[7] = system: SF-268 CNS
[8] = system: T-47D breast
[9] = system: CAKI-1 renal
[10] = system: NCI-H460 lung
[11] = system: SW-620 colon
[12] = system: MDA-MB-435
[13] = system: MOLT-4 leukemia
[14] = system: LOX IMVI melanoma
[15] = system: HT29 colon
[16] = system: PC-3 prostate
[17] = system: RXF 393 renal
[18] = system: NCI/ADR-RES ovarian
[19] = system: KM12 colon
[20] = system: EKVX NSCLC
[21] = system: RPMI-8226 leukemia
[22] = system: NCI-H226 lung
[23] = system: NCI-H23 lung
[24] = system: M14 melanoma
[25] = system: OVCAR-3 ovarian
[26] = system: DU-145 prostate
[27] = system: SR leukemia
[28] = system: A549 NSCLC
[29] = system: IGROV1 ovarian
[30] = system: MDA-MB-231 breast
[31] = system: HS 578T breast
[32] = system: ACHN renal
[33] = system: NCI-H522 lung
[34] = system: MCF7 breast
[35] = system: CCRF-CEM leukemia
[36] = system: SNB-75 CNS
[37] = system: SK-MEL-28 melanoma
[38] = system: HCC-2998 colon
[39] = system: OVCAR-4 ovarian
[40] = system: OVCAR-8 ovarian
[41] = system: COLO 205 colon
[42] = system: HOP-62 NSCLC
[43] = system: SNB-19 CNS
[44] = system: SK-MEL-5 melanoma
[45] = system: HCT-15 colon
[46] = system: UACC-257 melanoma
[47] = system: MALME-3M melanoma
[48] = system: SF-539 CNS
[49] = system: TK-10 renal
[50] = system: SF-295 CNS
[51] = system: MDA-N
[52] = system: A498 renal
[53] = system: U251 CNS
[54] = system: SK-MEL-2 melanoma

With COc1ccc([C@H]2C=[N+]([O-])O[C@H](OC3CCCC3)[C@@H]2OC(C)=O)cc1OC the TGI [1] was 39.1 µM, the TGI [2] was 40.6 µM and the TGI [3] was 77.7 µM. The TGI [4] was greater than 100 µM, the TGI [5] was greater than 100 µM and the TGI [6] was 32.9 µM. It also gave a TGI [7] greater than 100 µM, a TGI [8] of 53.2 µM and a TGI [9] of 29.3 µM. For the same compound, the TGI [10] was greater than 100 µM, the TGI [11] was 53 µM and the TGI [12] was 67.5 µM. For the same compound, the TGI [13] was greater than 100 µM, the TGI [14] was 31.3 µM and the TGI [15] was 54.7 µM. It also gave a TGI [16] greater than 100 µM, a TGI [17] of 29.8 µM and a TGI [18] of 63.6 µM. For the same compound, the TGI [19] was 72.4 µM, the TGI [20] was 50.2 µM and the TGI [21] was greater than 100 µM. For the same compound, the TGI [22] was greater than 100 µM, the TGI [23] was 57.2 µM and the TGI [24] was 44.4 µM. It also gave a TGI [25] of 72.4 µM, a TGI [26] of 89.6 µM and a TGI [27] greater than 100 µM. The TGI [28] was greater than 100 µM, the TGI [29] was 52.4 µM and the TGI [30] was 78.2 µM. The TGI [31] was 78.5 µM, the TGI [32] was 88.4 µM and the TGI [33] was 17.9 µM. The TGI [34] was 49.5 µM, the TGI [35] was 20.1 µM and the TGI [36] was greater than 100 µM. For the same compound, the TGI [37] was 44.2 µM, the TGI [38] was 72.8 µM and the TGI [39] was greater than 100 µM. It also gave a TGI [40] of 62.2 µM, a TGI [41] of 30.9 µM and a TGI [42] greater than 100 µM. It also gave a TGI [43] greater than 100 µM, a TGI [44] of 29.6 µM and a TGI [45] of 78.5 µM. For the same compound, the TGI [46] was 54.3 µM, the TGI [47] was 51.2 µM and the TGI [48] was 38 µM. The TGI [49] was 68.2 µM, the TGI [50] was greater than 100 µM and the TGI [51] was 69.2 µM. It also gave a TGI [52] greater than 100 µM, a TGI [53] greater than 100 µM and a TGI [54] greater than 100 µM.

Source: PubChem BioAssay (NCI)
